Laboratory results from patent US12115152B2, “Pan-RAF kinase inhibitor and use thereof” (HEFEI INSTITUTES OF PHYSICAL SCIENCE, CHINESE ACADEMY OF …, priority 2019, dated 2024).

How the values were obtained:
Assay type in all cases: cell-based
[1] = Effect on proliferation of cells, Cell Titer-Glo, 72 hours; settings: Mus musculus, BaF3 cells
Procedure: The compounds of the present invention were tested for their effect on growth of cancer cells (Table 2), to further evaluate the compounds herein for their inhibitory effect on proliferation of cancer cells and their selectivity in inhibiting proliferation of cancer cells. […]
(§1) In the example, solutions of the test compound in DMSO at different concentrations (0.000508 μM, 0.00152 μM, 0.00457 μM, 0.0137 μM, 0.0411 μM, 0.123 μM, 0.370 μM, 1.11 μM, 3.33 μM, 10 μM) was added to the above cells respectively. The cells were incubated for 72 hours. The number of viable cells was detected with a Cell Titer-Glo (Promega, USA) Cell Viability Assay Kit by quantifying the ATP in viable cells. The values of GI50 (unit) of the compounds of the present invention against each of the test cells were determined.

[2] = tested on: colorectal cancer cell COLO205 (expressing BRAF-V600E mutant kinase); assay: Effect on proliferation of cancer cells, Cell Titer-Glo, 72 hours; settings: Homo sapiens, COLO 205
Procedure: (§2) The compounds of the present invention were tested for their effect on growth of cancer cells (Table 2), to further evaluate the compounds herein for their inhibitory effect on proliferation of cancer cells and their selectivity in inhibiting proliferation of cancer cells.
(§3) The cells were incubated for 72 hours. The number of viable cells was detected with a Cell Titer-Glo (Promega, USA) Cell Viability Assay Kit by quantifying the ATP in viable cells. The values of GI50 (unit) of the compounds of the present invention against each of the test cells were determined.

[3] = tested on: melanoma cell A375 (expressing BRAF-V600E mutant kinase); assay: as above; settings: Homo sapiens, A-375
Procedure: as §2, §3

[4] = tested on: mouse BaF3-FL-BRAF-V600E (stably expressing full-length BRAF-V600E mutant kinase); assay: as above
Procedure: as §2, §3

[5] = tested on: human acute leukemia cell NB4 (expressing KRAS-A18D mutant kinase); assay: as above; settings: NB-4
Procedure: as §2
(§4) The above-mentioned BaF3-FL-BRAF-V600E mutant cell line was constructed by the method as follows. The sequence of human full-length BRAF-V600E mutant kinase region was amplified by PCR, inserted into a MSCV-Puro vector (purchased from Clontech), and stably transfected into mouse BaF3 cells by the retroviral method, and the growth factor IL-3 was removed. Eventually, a cell line dependent on a full-length BRAF-V600E protein having various mutation transferred was obtained.
as §1

[6] = tested on: human acute leukemia cell OCI-AML-3 (expressing NRAS-Q61L mutant kinase); assay: as above; settings: OCI-AML-3 cells
Procedure: as §2, §4, §1

Row | SMILES | GI50 [2] | GI50 [3] | GI50 [4] | GI50 [5] | GI50 [6] | GI50 [1]
1 | Cc1ccc(NC(=O)Cc2cccc(C(F)(F)F)c2)cc1-n1cc(-c2cncc(OCCCN3CCOCC3)c2)cn1 [Example 49, N-(4-methyl-3-(4-(5-(3-morpholinopropoxy)pyrid-3-yl)-1H-pyrazol-1-yl)phenyl)-2-(3-(trifluoromethyl)phenyl)acetamide] | 52 nM | 41 nM | 7.2 nM |  |  | 500 nM
2 | Cc1ccc(NC(=O)c2cccc(C(C)(C)C#N)c2)cc1-n1cc(-c2cncc(OCC3CCOC3)c2)cn1 (centres unmarked) [Example 65, 3-(2-cyanoprop-2-yl)-N-(4-methyl-3-(4-(5-((tetrahydrofuran-3-yl)methoxy)pyrid-3-yl)-1H-pyrazol-1-yl)phenyl)benzamide] | 35 nM | 16 nM | 1.3 nM |  |  | 1700 nM
3 | Cc1ccc(NC(=O)c2cccc(C(F)(F)F)c2)cc1-n1cc(-c2cncc(OCC3CCOC3)c2)cn1 (centres unmarked) [Example 66, N-(4-methyl-3-(4-(5-((tetrahydrofuran-3-yl)methoxy)pyrid-3-yl)-1H-pyrazol-1-yl)phenyl)-3-(trifluoromethyl)benzamide] | 230 nM | 71 nM | 18 nM |  |  | 3000 nM
4 | Cc1ccc(NC(=O)c2cccc(C(C)(C)C#N)c2)cc1-n1cc(-c2cnccc2OC2COC2)cn1 [Example 79, 3-(2-cyanoprop-2-yl)-N-(4-methyl-3-(4-(4-(oxetan-3-yloxy)pyrid-3-yl)-1H-pyrazol-1-yl)phenyl)benzamide] | 57 nM | 61 nM | < 0.3 nM |  |  | 4800 nM
5 | Cc1ccc(NC(=O)c2cccc(C(F)(F)F)c2)cc1-n1cc(-c2cnccc2OC2COC2)cn1 [Example 82, N-(4-methyl-3-(4-(4-(oxetan-3-yloxy)pyrid-3-yl)-1H-pyrazol-1-yl)phenyl)-3-(trifluoromethyl)benzamide] | 83 nM | 97 nM | 4 nM |  |  | 3200 nM
6 | Cc1ccc(NC(=O)c2cccc(C(C)(C)C#N)c2)cc1-n1cc(-c2cncc(OC3COC3)c2)cn1 [Example 84, 3-(2-cyanoprop-2-yl)-N-(4-methyl-3-(4-(5-(oxetan-3-yloxy)pyrid-3-yl)-1H-pyrazol-1-yl)phenyl)benzamide] | 130 nM | 99 nM | < 0.3 nM |  |  | 8600 nM
7 | Cc1ccc(NC(=O)c2cccc(C(C)(C)C#N)c2)cc1-n1cc(-c2cnccc2OCC2COC2)cn1 [Example 87, 3-(2-cyanoprop-2-yl)-N-(4-methyl-3-(4-(4-(oxetan-3-ylmethoxy)pyrid-3-yl)-1H-pyrazol-1-yl)phenyl)benzamide] | 65 nM | 36 nM | < 0.3 nM |  |  | 2500 nM
8 | Cc1ccc(NC(=O)c2cccc(C(C)(C)C#N)c2)cc1-n1cc(-c2cncc(N3CCNCC3)c2)cn1 [Example 163, 3-(2-cyanoprop-2-yl)-N-(4-methyl-3-(4-(5-(piperizan-1-yl)pyrid-3-yl)1H-pyrazol-1-yl)phenyl)benzamide] | 39 nM | 160 nM | 18 nM | 44 nM | 10 nM | 1600 nM
9 | Cc1ccc(NC(=O)c2cccc(C(C)(C)C#N)c2)cc1-n1cc(-c2cnccc2OCCCCO)cn1 [Example 165, 3-(2-cyanoprop-2-yl)-N-(3-(4-(4-(4-hydroxybutoxy)pyrid-3-yl)-1H-pyrazol-1-yl)-4-methylphenyl)benzamide] | 190 nM | 40 nM | < 0.3 nM | 75 nM | 14 nM | 1800 nM
10 | Cc1ccc(NC(=O)c2cccc(C(F)(F)F)c2)cc1-n1cc(-c2cnccc2OCCCCO)cn1 [Example 166, N-(3-(4-(4-(4-hydroxybutoxy)pyrid-3-yl)-1H-pyrazol-1-yl)-4-methylphenyl)-3-(trifluoromethyl)benzamide] | 94 nM | 77 nM | 1 nM | 69 nM | 19 nM | 2600 nM
11 | Cc1ccc(NC(=O)c2cccc(Cl)c2)cc1-n1cc(-c2cccnc2)cn1 [compound 2, 3-chloro-N-(4-methyl-3-(4-(pyrid-3-yl)-1H-pyrazol-1-yl)phenyl)benzamide, reference compound] | 3300 nM | 1600 nM | 240 nM |  |  | 9300 nM

The remaining compounds from weak to strong by GI50 [2], led by results:

Row | GI50 [2] | GI50 [3] | GI50 [4] | GI50 [5] | GI50 [6] | SMILES | GI50 [1]
12 | 119 nM | 77 nM | < 0.3 nM |  |  | Cc1ccc(NC(=O)c2cccc(C(C)(C)C#N)c2)cc1-n1cc(-c2cnccc2OC2CCOCC2)cn1 [Example 56, 3-(2-cyanoprop-2-yl)-N-(4-methyl-3-(4-(4-((tetrahydro-2H-pyran-4-yl)oxy)pyrid-3-yl)-1H-pyrazol-1-yl)phenyl)benzamide] | 4100 nM
13 | 100 nM | 34 nM | 5.6 nM |  |  | Cc1ccc(NC(=O)c2cccc(C(C)(C)C#N)c2)cc1-n1cc(-c2cnccc2OCC2CCOCC2)cn1 [Example 72, 3-(2-cyanoprop-2-yl)-N-(4-methyl-3-(4-(4-((tetrahydro-2H-pyran-4-yl)methoxy)pyrid-3-yl)-1H-pyrazol-1-yl)phenyl)benzamide] | 5800 nM
14 | 71 nM | 120 nM | 4 nM | 35 nM | 9.1 nM | Cc1ccc(NC(=O)c2cccc(C(F)(F)F)c2)cc1-n1cc(-c2cncc(N3CCNCC3)c2)cn1 [Example 164, N-(4-methyl-3-(4-(5-(piperizan-1-yl)pyrid-3-yl)-1H-pyrazol-1-yl)phenyl)-3-(trifluoromethyl)benzamide] | 1600 nM
15 | 66 nM | 27 nM | 4.3 nM |  |  | Cc1ccc(NC(=O)c2cccc(C(C)(C)C#N)c2)cc1-n1cc(-c2cnccc2OC2CCOC2)cn1 (centres unmarked) [Example 68, 3-(2-cyanoprop-2-yl)-N-(4-methyl-3-(4-(4-((tetrahydrofuran-3-yl)oxy)pyrid-3-yl)-1H-pyrazol-1-yl)phenyl)benzamide] | 1800 nM
16 | 61 nM | 35 nM | 16 nM |  |  | Cc1ccc(NC(=O)c2cccc(C(F)(F)F)c2)cc1-n1cc(-c2cnccc2OC2CCOC2)cn1 (centres unmarked) [Example 69, N-(4-methyl-3-(4-(4-((tetrahydrofuran-3-yl)oxy)pyrid-3-yl)-1H-pyrazol-1-yl)phenyl)-3-(trifluoromethyl)benzamide] | 1200 nM
17 | 56 nM | 79 nM | 28 nM |  |  | Cc1ccc(NC(=O)Cc2cccc(C(F)(F)F)c2)cc1-n1cc(-c2cncc(-c3ccncc3)c2)cn1 [Example 71, N-(3-(4-([3,4′-bipyrid]-5-yl)-1H-pyrazol-1-yl)-4-methylphenyl)-2-(3-(trifluoromethyl)phenyl)acetamide] | 1100 nM
18 | 55 nM | 14 nM | 2.3 nM | 95 nM | 12 nM | Cc1ccc(NC(=O)c2cccc(C(C)(C)C#N)c2)cc1-n1cc(-c2cnccc2OCCCO)cn1 [Example 161, 3-(2-cyanoprop-2-yl)-N-(3-(4-(4-(3-hydorxypropoxy)pyrid-3-yl)-1H-pyrazol-1-yl)-4-methylphenyl)benzamide] | 3600 nM
19 | 39 nM | 32 nM | 3.9 nM | 61 nM | 11 nM | Cc1ccc(NC(=O)c2cccc(C(F)(F)F)c2)cc1-n1cc(-c2cnccc2OCCCO)cn1 [Example 162, N-(3-(4-(4-(3-hydoxypropoxy)pyrid-3-yl)-1H-pyrazol-1-yl)-4-methylphenyl)-3-(trifluoromethyl)benzamide] | 5000 nM
20 | 36 nM | 22 nM | 6.6 nM | 160 nM | 23 nM | COCCOc1ccncc1-c1cnn(-c2cc(NC(=O)c3cccc(C(C)(C)C#N)c3)ccc2C)c1 [Example 159, 3-(2-cyanoprop-2-yl)-N-(3-(4-(4-(2-methoxyethoxy)pyrid-3-yl)-1H-pyrazol-1-yl)-4-methylphenyl)benzamide] | 5200 nM
21 | 32 nM | 14 nM | 4.1 nM |  |  | Cc1ccc(NC(=O)c2cccc(C(F)(F)F)c2)cc1-n1cc(-c2cncc(OCCCN3CCOCC3)c2)cn1 [Example 48, N-(4-methyl-3-(4-(5-(3-morpholinopropoxy)pyrid-3-yl)-1H-pyrazol-1-yl)phenyl)-3-(trifluoromethyl)benzamide] | 520 nM
